Source: patent publication US6821967B2, “Substituted piperazine derivatives, the preparation thereof and their use as medicaments” (Boehringer Ingelheim Pharma KG, priority 1999, dated 2004)

| SMILES | melting point [°C] |
| --- | --- |
| C[C@@H]1CN(c2ncc3ccccc3n2)C[C@H](C)N1CCCCC1(C(=O)NCC(F)(F)F)c2ccccc2-c2ccccc21 [Example 47, 9-[4-(cis-2,6-dimethyl-4-quinazolin-2-yl-piperazin-1-yl)-butyl]-9H-fluorene-9-carboxylic acid-(2,2,2-trifluoro-ethyl)-amide] | 174 |
| Cn1c(N2CCN(CCCCC3(C(=O)NCC(F)(F)F)c4ccccc4-c4ccccc43)CC2)nc2ccc(F)cc21 [Example 17, 9-{4-[4-(6-fluoro-1-methyl-1H-benzimidazol-2-yl)-piperazin-1-yl]-butyl}-9H-fluorene-9-carboxylic acid-(2,2,2-trifluoro-ethyl)-amide] | 54 |
| C[C@@H]1CN(c2ccc3ccccc3n2)CCN1CCCCC1(C(=O)NCC(F)(F)F)c2ccccc2-c2ccccc21 [Example 39, 9-{4-[(R)-2-methyl-4-quinolin-2-yl-piperazin-1-yl]-butyl}-9H-fluorene-9-carboxylic acid-(2,2,2-trifluoro-ethyl)-amide] | 102 |
| O=C(NCC(F)(F)F)C1(CCCCN2CCN(c3nc4ccccc4o3)CC2)c2ccccc2-c2ccccc21 [Example 2, 9-[4-(4-(benzoxazol-2-yl)-piperazin-1-yl)-butyl]-9H-fluorene-9-carboxylic acid-(2,2,2-trifluoro-ethyl)-amide] | 128 |
| CC1CN(CCCCC2(C(=O)NCC(F)(F)F)c3ccccc3-c3ccccc32)CCN1c1ccc2ccccc2n1 (stereo not shown) [Example 40, 9-{4-[3-methyl-4-quinolin-2-yl-piperazin-1-yl]-butyl}-9H-fluorene-9-carboxylic acid-(2,2,2-trifluoro-ethyl)-amide] | 50 |
| O=C(NCC(F)(F)F)C1(CCCCN2CCN(c3ccc4cccc(Br)c4n3)CC2)c2ccccc2-c2ccccc21 [Example 32, 9-{4-[4-(8-bromo-quinolin-2-yl)-piperazin-1-yl]-butyl}-9H-fluorene-9-carboxylic acid-(2,2,2-trifluoro-ethyl)-amide] | 66 |
| C[C@@H]1CN(c2nc3ccccc3n2C)C[C@H](C)N1CCCCC1(C(=O)NCC(F)(F)F)c2ccccc2-c2ccccc21 [Example 43, 9-{4-[cis-2,6-dimethyl-4-(1-methyl-1H-benzimidazol-2-yl)-piperazin-1-yl]-butyl}-9H-fluorene-9-carboxylic acid-(2,2,2-trifluoro-ethyl)-amide] | 77 |
| O=C(NCC(F)(F)F)C1(CCCCN2CCN(c3ccc4ccc(Cl)cc4n3)CC2)c2ccccc2-c2ccccc21 [Example 26, 9-{4-[4-(7-chloro-quinolin-2-yl)-piperazin-1-yl]-butyl}-9H-fluorene-9-carboxylic acid-(2,2,2-trifluoro-ethyl)-amide] | 146 to 148 |
| COc1cccc2ccc(N3CCN(CCCCC4(C(=O)NCC(F)(F)F)c5ccccc5-c5ccccc54)CC3)nc12 [Example 30, 9-{4-[4-(8-methoxy-quinolin-2-yl)-piperazin-1-yl]-butyl}-9H-fluorene-9-carboxylic acid-(2,2,2-trifluoro-ethyl)-amide] | 74 |
| Cn1c(N2CCN(CCCCC3(C(=O)NCC(F)(F)F)c4ccccc4-c4ccccc43)CC2)nc2cc(F)ccc21 [Example 18, 9-{4-[4-(5-fluoro-1-methyl-1H-benzimidazol-2-yl)-piperazin-1-yl]-butyl}-9H-fluorene-9-carboxylic acid-(2,2,2-trifluoro-ethyl)-amide] | 59 |
| O=C(NCC(F)(F)F)C1(CCCCN2CCN(c3ccc4cccc(O)c4n3)CC2)c2ccccc2-c2ccccc21 [Example 31, 9-{4-[4-(8-hydroxy-quinolin-2-yl)-piperazin-1-yl]-butyl}-9H-fluorene-9-carboxylic acid-(2,2,2-trifluoro-ethyl)-amide] | 159 |
| O=C(NCC(F)(F)F)C1(CCCCN2CCN(c3ccc4c(Cl)cccc4n3)CC2)c2ccccc2-c2ccccc21 [Example 27, 9-{4-[4-(5-chloro-quinolin-2-yl)-piperazin-1-yl]-butyl}-9H-fluorene-9-carboxylic acid-(2,2,2-trifluoro-ethyl)-amide] | 142 to 143 |
| O=C(NCC(F)(F)F)C1(CCCCN2CCN(c3ccc4ccccc4n3)CC2)c2ccccc2-c2ccccc21 [Example 3, 9-[4-(4-(quinolin-2-yl)-piperazin-1-yl)-butyl]-9H-fluorene-9-carboxylic acid-(2,2,2-trifluoro-ethyl)-amide] | 56 to 57 |

Next, values leading:

| melting point [°C] | SMILES |
| --- | --- |
| 171 | C[C@@H]1CN(c2nc3ccccc3s2)C[C@H](C)N1CCCCC1(C(=O)NCc2ccc(F)cc2)c2ccccc2-c2ccccc21 [Example 70, 9-[4-(4-benzothiazol-2-yl-cis-2,6-dimethyl-piperazin-1-yl)-butyl]-9H-fluorene-9-carboxylic acid-4-fluoro-benzylamide] |
| 136 to 137 | C[C@@H]1CN(c2ccc3c(Cl)cccc3n2)C[C@H](C)N1CCCCC1(C(=O)NCc2ccc(F)cc2)c2ccccc2-c2ccccc21 [Example 66, 9-{4-[4-(5-chloro-quinolin-2-yl)-cis-2,6-dimethyl-piperazin-1-yl]-butyl}-9H-fluorene-9-carboxylic acid-4-fluoro-benzylamide] |
| 114 to 116 | COc1cccc(CNC(=O)C2(CCCCN3CCN(c4ccc5ccccc5n4)CC3)c3ccccc3-c3ccccc32)c1 [Example 81, 9-[4-(4-quinolin-2-yl-piperazin-1-yl)-butyl]-9H-fluorene-9-carboxylic acid-3-methoxy-benzylamide] |
| 87 | COCCCNC(=O)C1(CCCCN2CCN(c3ccc4ccccc4n3)CC2)c2ccccc2-c2ccccc21 [Example 93, 9-[4-(4-quinolin-2-yl-piperazin-1-yl)-butyl]-9H-fluorene-9-carboxylic acid-(3-methoxy-propyl)-amide] |
| 43 | Cn1c(N2CCN(CCCCC3(C(=O)NCc4ccc(F)cc4)c4ccccc4-c4ccccc43)CC2)nc2ccc(F)cc21 [Example 62, 9-{4-[4-(6-fluoro-1-methyl-1H-benzimidazol-2-yl)-piperazin-1-yl]-butyl}-9H-fluorene-9-carboxylic acid-4-fluoro-benzylamide] |
| 143 to 144 | COc1ccc(CNC(=O)C2(CCCCN3CCN(c4ncc5ccccc5n4)CC3)c3ccccc3-c3ccccc32)cc1 [Example 74, 9-[4-(4-quinazolin-2-yl-piperazin-1-yl)-butyl]-9H-fluorene-9-carboxylic acid-4-methoxy-benzylamide] |
| 48 to 58 | O=C(N1CCOCC1)C1(CCCCN2CCN(c3ccc4ccccc4n3)CC2)c2ccccc2Oc2ccccc21 [Example 120, 1-morpholin-4-yl-1-{9-[4-(4-quinolin-2-yl-piperazin-1-yl)-butyl]-9H-xanthene-9-yl}-methanone] |
| 98 to 100 | O=C(O)CCNC(=O)C1(CCCCN2CCN(c3ccc4ccccc4n3)CC2)c2ccccc2-c2ccccc21 [Example 96, 9-[4-(4-quinolin-2-yl-piperazin-1-yl)-butyl]-9H-fluorene-9-carboxylic acid-(2-carboxy-ethyl)-amide] |
| 52 to 53 | C[C@H]1CN(c2ccc3ccccc3n2)CCN1CCCCC1(C(=O)NCC(F)(F)F)c2ccccc2Oc2ccccc21 [Example 109, 9-{4-[(S)-2-methyl-4-quinolin-2-yl-piperazin-1-yl]-butyl}-9H-xanthene-9-carboxylic acid-(2,2,2-trifluoro-ethyl)-amide] |
| 160 | O=C(NCc1ccc(F)cc1)C1(CCCCN2CCN(c3ncc4ccccc4n3)CC2)c2ccccc2-c2ccccc21 [Example 58, 9-[4-(4-quinazolin-2-yl-piperazin-1-yl)-butyl]-9H-fluorene-9-carboxylic acid-4-fluoro-benzylamide] |
| 165 | O=C(NCC(F)(F)F)C1(CCCCN2CCN(c3ccc4cc(Cl)ccc4n3)CC2)c2ccccc2Oc2ccccc21 [Example 105, 9-{4-[4-(6-chloro-quinolin-2-yl)-piperazin-1-yl]-butyl}-9H-xanthene-9-carboxylic acid-(2,2,2-trifluoro-ethyl)-amide] |
| 153 | Cn1c(N2CCN(CCCCC3(C(=O)NCc4ccc(F)cc4)c4ccccc4-c4ccccc43)CC2)nc2cccnc21 [Example 63, 9-{4-[4-(3-methyl-3H-imidazo[4,5]-pyridin-2-yl)-piperazin-1-yl]-butyl}-9H-fluorene-9-carboxylic acid-4-fluoro-benzylamide] |
| 58 | O=C(NCc1ccc(F)cc1)C1(CCCCN2CCN(c3ccc4ccccc4n3)CC2)c2ccccc2-c2ccccc21 [Example 53, 9-[4-(4-quinolin-2-yl-piperazin-1-yl)-butyl]-9H-fluorene-9-carboxylic acid-4-fluoro-benzylamide] |
| 68 | O=C(NCC(F)(F)F)C1(CCCN2CCN(c3nc4ccccc4s3)CC2)c2ccccc2-c2ccccc21 [Example 122, 9-[3-(4-benzothiazol-2-yl-piperazin-1-yl)-propyl]-9H-fluorene-9-carboxylic acid-(2,2,2-trifluoro-ethyl)-amide] |
| 120 | O=C(NCC(F)(F)C(F)(F)F)C1(CCCCN2CCN(c3ccc4ccccc4n3)CC2)c2ccccc2-c2ccccc21 [Example 86, 9-[4-(4-quinolin-2-yl-piperazin-1-yl)-butyl]-9H-fluorene-9-carboxylic acid-(2,2,3,3,3-pentafluoro-propyl)-amide] |
| 160 | O=C(NCc1ccc(F)cc1)C1(CCCCN2CCN(c3cnc4ccccc4n3)CC2)c2ccccc2-c2ccccc21 [Example 57, 9-[4-(4-quinoxalin-2-yl-piperazin-1-yl)-butyl]-9H-fluorene-9-carboxylic acid-4-fluoro-benzylamide] |
| 116 to 118 | O=C(NCc1ccc(F)cc1F)C1(CCCCN2CCN(c3ccc4ccccc4n3)CC2)c2ccccc2-c2ccccc21 [Example 84, 9-[4-(4-quinolin-2-yl-piperazin-1-yl)-butyl]-9H-fluorene-9-carboxylic acid-2,4-difluoro-benzylamide] |
| 62 | C[C@@H]1CN(c2ccc3ccccc3n2)C[C@H](C)N1CCCCC1(C(=O)NCc2ccc(F)cc2)c2ccccc2-c2ccccc21 [Example 65, 9-[4-(cis-2,6-dimethyl-4-quinolin-2-yl-piperazin-1-yl)butyl]-9H-fluorene-9-carboxylic acid-4-fluoro-benzylamide] |
